Results: patent US9724309B2, “Film-form preparation and method for producing the same” (NITTO DENKO CORPORATION, priority 2010, dated 2017)

test: Particle size of drug particles by electron microscope; type: physicochemical; conditions: 200 particles
Description: The various drug particles used in the Examples and Comparative Examples were obtained passing the powder through a 32 μm, 53 μm, 90 μm sieve after pulverization, or obtained fine particles by a jet mill (product of Hosokawa Micron Group, spiral jet mill model 50AS) or a spray dryer (product of Büchi Labortechnik AG, mini spray dryer model B-290) after pulverization. The particle sizes of these drug particles were measured by electron microscope (product of Hitachi High-Technologies Corp., model TM-1000) and the 50 vol % average particle size was calculated from the measurement results of 200 particles. This value was used as the particle size index of the particles.

Compound | 50 vol % average particle size [um]
COc1cc(S(=O)(=O)[O-])ccc1O.O.[K+] [Potassium guaiacolsulfonate particles C, Potassium guaiacolsulfonate] | 80.4
COc1cc(S(=O)(=O)[O-])ccc1O.O.[K+] [Potassium guaiacolsulfonate particles A, Potassium guaiacolsulfonate] | 2.1
COc1cc(S(=O)(=O)[O-])ccc1O.O.[K+] [Potassium guaiacolsulfonate particles, Potassium guaiacolsulfonate] | 5.0
N[C@@H](CCC(=O)N[C@@H](CS)C(=O)NCC(=O)O)C(=O)O [Glutathione (reduced form) particles, Glutathione (reduced form)] | 5.3
Cn1c(=O)c2[nH]cnc2n(C)c1=O [Aminophyllin particles, Aminophyllin] | 4.3
COc1cc(S(=O)(=O)[O-])ccc1O.O.[K+] [Potassium guaiacolsulfonate particles B, Potassium guaiacolsulfonate] | 40.4
